Calls of active or inactive are those of the source.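 How the source made its calls: active means more than half of replicate measurements showing over 20% loss of kinase signal relative to plate controls; inconclusive means some but at most half of replicates over 20% loss; inactive means no replicate over 20% signal loss.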
These compounds were tested against Glycogen synthase kinase-3 alpha (Homo sapiens) (UniProt P49840) (assay: concentration-response blocking of human GSK3A – biochemical, luminescence, cell-free homogeneous, retest, dose response (AID 463203)). Conditions: GSK-3 alpha enzyme, ADP-Glo luminescence, 60 min.
Sequence of Glycogen synthase kinase-3 alpha (Homo sapiens) (P49840 whole entry, looked up): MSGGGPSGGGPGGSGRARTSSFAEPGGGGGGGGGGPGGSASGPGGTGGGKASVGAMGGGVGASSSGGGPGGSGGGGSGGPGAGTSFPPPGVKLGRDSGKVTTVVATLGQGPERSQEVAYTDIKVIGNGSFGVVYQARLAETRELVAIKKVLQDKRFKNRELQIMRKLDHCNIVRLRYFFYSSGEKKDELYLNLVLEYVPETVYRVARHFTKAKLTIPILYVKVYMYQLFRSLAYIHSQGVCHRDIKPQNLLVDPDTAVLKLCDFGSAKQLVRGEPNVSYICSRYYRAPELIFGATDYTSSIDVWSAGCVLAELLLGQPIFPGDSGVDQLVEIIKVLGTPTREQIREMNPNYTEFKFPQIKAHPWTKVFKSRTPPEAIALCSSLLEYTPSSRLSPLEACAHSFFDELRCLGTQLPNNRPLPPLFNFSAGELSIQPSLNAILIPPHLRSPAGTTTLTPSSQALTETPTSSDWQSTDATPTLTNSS
For COc1ccc(-c2nnc(SCC(=O)Nc3ccccc3OC)o2)cc1, the AC50 was > 30 µM (inactive).
With CSc1nc2sc3c(c2c(=O)[nH]1)CCC(C)C3 (stereo not given) the AC50 was > 30 µM (inactive).
For CCOc1ccc(-c2nc(N)ncc2-c2ccccc2)c(O)c1, the AC50 was 20.7 µM.
COc1ccc(-c2csc3nc(C)nc(N4CCC(C)CC4)c23)cc1OC was tested, and the AC50 was > 30 µM (inactive).
With CCOC(=O)Cc1csc(NC(=O)C2CCCN(S(=O)(=O)c3cnc[nH]3)C2)n1 (stereo not given) the AC50 was > 30 µM (inactive).
CCOc1cc(/C=C2\SC(N3CCCC(C)C3)=NC2=O)ccc1O (stereo not given) showed an AC50 of 8.87 µM.
In the case of CC(C)(C)OC(=O)N1CCC(NC(=O)c2[nH]cnc2C(=O)Nc2ccccc2)CC1, the AC50 is reported as > 30 µM (inactive).
For O=C(O)c1cc(NC(=O)c2ccccc2[N+](=O)[O-])ccc1O, the AC50 was > 30 µM (inactive).
Nc1nc(-c2ccccc2)cc(-c2ccccc2O)n1 gave an AC50 of 25.4 µM.
In the case of O=C(Nc1ccsc1C(=O)O)c1ccc(Cl)cc1, the AC50 is reported as > 30 µM (inactive).
With O=C(Nc1nc2c(s1)CCCC2)c1ccc(Br)o1 the AC50 was > 30 µM (inactive).
With O=C(O)Cn1c(=O)c2c3c(sc2n(Cc2ccc(Cl)cc2Cl)c1=O)CCCC3 the AC50 was > 30 µM (inactive).
In the case of CCOC(=O)CC1COc2ccccc2N1C(=O)c1ccc(C)cc1 (stereo not given), the AC50 is reported as > 30 µM (inactive).
For CCOc1ccc(Cn2nnc(C(=O)Nc3cc(C)cc(C)c3)c2N)cc1, the AC50 was > 30 µM (inactive).
For Cc1oc2ccc(O)cc2c1C(=O)c1ccc(Br)cc1, the AC50 was > 30 µM (inactive).
In the case of N#Cc1c(NC(=O)CSc2n[nH]c(N)n2)oc(-c2ccccc2)c1-c1ccccc1, the AC50 is reported as > 30 µM (inactive).
O=c1ccc(-c2nc3ccccc3n2Cc2ccc(Cl)cc2)c[nH]1 was tested, and the AC50 was > 30 µM (inactive).
For Cc1nc(SCC(=O)NCC2CCCO2)c2c3c(sc2n1)CCCC3 (stereo not given), the AC50 was > 30 µM (inactive).
In the case of Cc1nc(Nc2ccc(S(N)(=O)=O)cc2)oc1C, the AC50 is reported as > 30 µM (inactive).
With COc1ccccc1C(=O)NNC(=O)c1cccc(Cl)c1 the AC50 was > 30 µM (inactive).
Cc1nn(CCOc2ccccc2)c(=O)n1-c1ccccc1F was tested, and the AC50 was > 30 µM (inactive).
Cc1ccc(C(=O)c2c(NC(=O)CSc3nnc(N)s3)sc3c2CCCC3)cc1 was tested, and the AC50 was > 30 µM (inactive).
CCOC(=O)N1CCc2c(sc3nc4n(c(=O)c23)N=C(C)CS4)C1 was tested, and the AC50 was > 30 µM (inactive).
COc1ccccc1NC(=O)CSc1nnc(-c2ccccc2)o1 was tested, and the AC50 was > 30 µM (inactive).
With CCc1cccc(NC(=O)C2CCN(c3ncnc4sc(C)c(C)c34)CC2)c1 the AC50 was > 30 µM (inactive).
Cc1csc(NC(=O)c2ccc3c(c2)OCO3)n1 was tested, and the AC50 was > 30 µM (inactive).
For CCN(C(=O)CN1CCCCC1)c1c(N)n(Cc2ccccc2)c(=O)[nH]c1=O, the AC50 was > 30 µM (inactive).
In the case of COc1cc(C(=O)NNC(=O)C2CSC3(C)CCC(=O)N23)cc(OC)c1OC (stereo not given), the AC50 is reported as > 30 µM (inactive).
With Clc1ccccc1/C=N/Nc1cc(N2CCOCC2)ncn1 the AC50 was > 30 µM (inactive).
For N#CCCn1cc(C(=O)N2CCCCC2)c(-c2cccc([N+](=O)[O-])c2)n1, the AC50 was > 30 µM (inactive).
O=P(COCCOCP(=O)(c1ccccc1)c1ccccc1)(c1ccccc1)c1ccccc1 was tested, and the AC50 was > 30 µM (inactive).
In the case of NC(=O)c1cn(C2OC(CO)C(O)C2O)c2ncnc(N)c12 (stereo not given), the AC50 is reported as 6.52 µM.
For COc1cc(C(=O)NCCC(=O)NCCN2CCOCC2)cc(OC)c1OC, the AC50 was > 30 µM (inactive).
Compound C=CCn1c(O)c(/C(C)=N/N2CCCCCC2)c(=O)[nH]c1=O has an AC50 of 28.8 µM.
With COc1ccc2ccccc2c1C1CC(=O)N2CN(Cc3ccco3)CSC2=C1C#N (stereo not given) the AC50 was > 30 µM (inactive).
O=C1c2cccc(O)c2C(=O)c2c(O)cc(CO)cc21 was tested, and the AC50 was > 30 µM (inactive).
In the case of CC1(C)CC(=O)C(C=Nc2ccc(O)cc2)=C(O)C1, the AC50 is reported as > 30 µM (inactive).
Cc1ccc(C(=O)N/C(=C/c2ccc(-c3cccc([N+](=O)[O-])c3)o2)C(=O)NC(C)C)cc1 was tested, and the AC50 was > 30 µM (inactive).
In the case of NC(=O)c1oc2ccccc2c1NC(=O)c1ccc(F)cc1, the AC50 is reported as > 30 µM (inactive).
With COC(=O)c1cn(C(=O)c2ccc(Cl)cc2)c2ccccc12 the AC50 was > 30 µM (inactive).
With COc1ccc(C(=O)c2sc(NC(C)C)nc2N)cc1OC the AC50 was 0.234 µM.
With O=C(Nc1ccccc1N1CCOCC1)c1ccc(S(=O)(=O)NCc2ccco2)cc1 the AC50 was > 30 µM (inactive).
With O=C(c1cccnc1NCc1ccccc1)N1CCOCC1 the AC50 was > 30 µM (inactive).
Cc1ccc(C(=O)Nc2cccc(-c3cnc4ccccc4n3)c2)cc1 was tested, and the AC50 was > 30 µM (inactive).
CSc1ccc(/C=N/NC(=O)c2ccccc2Cl)cc1 was tested, and the AC50 was > 30 µM (inactive).
For O=C(Cc1c(F)cccc1Cl)Nc1ncc([N+](=O)[O-])s1, the AC50 was 2.43 µM.
With Cc1cccc(-c2nnc(SCc3nc4ccccc4[nH]3)n2Cc2ccco2)c1 the AC50 was > 30 µM (inactive).
For CCOC(=O)CN1CC23C=CC(O2)C(C(=O)O)C3C1=O (stereo not given), the AC50 was > 30 µM (inactive).
For Cc1ccc(CNc2ccc([N+](=O)[O-])cc2C(N)=O)cc1, the AC50 was > 30 µM (inactive).
Clc1ccc(N/N=C/c2ccncc2)cc1Cl was tested, and the AC50 was > 30 µM (inactive).
Compound O=c1[nH]c(=S)n(C2CC2)c(O)c1C=NCc1cccnc1 has an AC50 of 28.2 µM.
With Cc1ccc(N2C(S)=C(C#N)C(=O)NC2c2ccco2)cc1 (stereo not given) the AC50 was > 30 µM (inactive).
In the case of CN(C)C(=O)Oc1ccc2c(c1)O/C(=C\c1cccc([N+](=O)[O-])c1)C2=O, the AC50 is reported as > 30 µM (inactive).
In the case of Cc1ccc(NC(=S)Nc2ccc3cn[nH]c3c2)c(C)c1, the AC50 is reported as > 30 µM (inactive).
In the case of CCOc1cc(-c2nc3c(C)cccn3c2NCC2CCCO2)ccc1O (stereo not given), the AC50 is reported as > 30 µM (inactive).
In the case of CC1CCCCC1NC(=O)C(=O)NCC1CCCO1 (stereo not given), the AC50 is reported as > 30 µM (inactive).
In the case of O=C(NCCCN1CCOCC1)c1ccc(Cl)cc1[N+](=O)[O-], the AC50 is reported as > 30 µM (inactive).
COc1ccc(CC(=O)NCCc2cnc[nH]2)cc1 was tested, and the AC50 was > 30 µM (inactive).
With O=C(/C(=N/N=C/c1ccc(O)c(O)c1)c1ccccc1)c1ccccc1 the AC50 was > 30 µM (inactive).
In the case of CCN1C(=O)/C(=C\c2ccco2)C(C(=O)OC)=C1C, the AC50 is reported as > 30 µM (inactive).
Work on CCOC(=O)c1c(-c2cccc([N+](=O)[O-])c2)csc1N yielded an AC50 of 6.81 µM.
For CCOC(=O)c1cnc2c(C)c(Cl)ccc2c1N1CCN(CC)CC1, the AC50 was > 30 µM (inactive).
For Brc1ccc(-c2nc3ncccn3c2NC2CCCCC2)o1, the AC50 was 2.61 µM.
In the case of Clc1ccccc1C1=Nn2c(nnc2-c2ccncc2)SC1, the AC50 is reported as 2.35 µM.
In the case of O=C(CSCc1ccccn1)Nc1ccccc1, the AC50 is reported as > 30 µM (inactive).
In the case of CC1(C)CC(=O)C(C2c3ccccc3Oc3ccccc32)C(=O)C1, the AC50 is reported as > 30 µM (inactive).
CCSc1nnc([C@@H](N)Cc2c[nH]c3ccccc23)o1 was tested, and the AC50 was > 30 µM (inactive).
For O=C1NC(=Nc2cccc(O)c2)S/C1=C\c1cccc([N+](=O)[O-])c1, the AC50 was > 30 µM (inactive).
With O=C(COC(=O)c1cccc(S(=O)(=O)N2CCOCC2)c1)Nc1ccc(Cl)cn1 the AC50 was 7.3 µM.
For Cc1ccc(Sc2ccc(NC(=O)CCl)cc2)cc1C, the AC50 was > 30 µM (inactive).
In the case of CCCC1=C(C(=O)OCC)C(c2ccc(N(C)C)cc2)n2ncnc2N1 (stereo not given), the AC50 is reported as > 30 µM (inactive).
With COC1(OC)N=C(NC(=O)Nc2ccccc2)C2(C#N)C(c3ccccc3)C12C#N (stereo not given) the AC50 was > 30 µM (inactive).
In the case of Cc1nnc(SCC(=O)Nc2ccc(Br)cn2)[nH]c1=O, the AC50 is reported as 13.7 µM.
For Cc1ccc2c(c1)Oc1ccc(NC(=O)CCCl)cc1C(=O)N2, the AC50 was > 30 µM (inactive).
With Cc1ccc(NC(=O)CSc2nnc(-c3ccncc3)o2)cc1 the AC50 was > 30 µM (inactive).

— PubChem BioAssay AID463203 (Broad Institute, 2010)
